Laboratory results from patent US9149538B2, “Oligomer conjugates of heteropentacyclic nucleosides” (priority 2008, dated 2015).
Read-outs that look alike come from different tables or passages of the source.

How the values were obtained:
[1] = test system: Influenza A/Hong Kong/8/68; test: microbe, parasite or virus in culture; assay type: cell-based, influenza type A
[2] = in vitro; details: dog
[3] = test system: MDCK cells
[4] = test system: BVDV NADL; test: Anti-Bovine Diarrhea Virus (surrogate Hepatitis C) cytoprotection assay (XTT) in MDBK cells; assay type: cell-based, Bovine Viral Diarrhea virus; details: inhibition of virus-induced cell killing, 100 μM high test concentration
[5] = test system: MDBK cells; details: read-out: TC50, cells plus drug only, XTT

Row | SMILES | EC50 ([1]; Influenza A virus, MDCK, MDCK/Influenza A/Hong Kong/8/68, inhibition of virus-induced cell killing, XTT, 100 μM high test concentration, read-out: EC50) [µM] | CC50 ([2]; TC50, MDCK cells, cells plus drug only, XTT) [µM] | CC50 [3] [µM] | EC50 ([1]; read-out: EC50) [µM] | EC50 [4] [µM] | CC50 [5] [µM] | CC50 ([3]; dog) [µM] | EC50 [1] [µM] | EC50 ([1]; Influenza A virus, MDCK) [µM] | EC50 ([4]; Bovine viral diarrhea virus isolates and strains, MDBK) [µM] | CC50 ([2]; TC50) [µM]
1 | NC12CC3CC(CC(C3)C1)C2 [Amantadine, amantadine, reference compound] | 0.1 | > 10 | – | – | – | – | – | – | – | – | –
2 | COCCOCCOCCOCCOCCN(CCOCCOCCOCCOCCOC)C(=O)c1ncn([C@@H]2O[C@H](CO)[C@@H](O)[C@H]2O)n1 [Di-mPEG5-N-Ribavirin] | – | – | 19.5 | 5.5 | > 100 | > 100 | – | – | – | – | –
3 | COCCOCCOCCOCCOCCOCCOCCN(CCOCCOCCOCCOCCOCCOCCOC)C(=O)c1ncn([C@@H]2O[C@H](CO)[C@@H](O)[C@H]2O)n1 [Di-mPEG7-N-Ribavirin] | – | – | > 100 | > 100 | > 100 | > 100 | – | – | – | – | –
4 | NC(=O)c1ncn([C@@H]2O[C@H](CO)[C@@H](O)[C@H]2O)n1 [Ribavirin, ribavirin, reference compound] | – | – | – | – | 5.2 | – | 79 | 16.3 | 18.2 | 8.1 | 50
5 | COCCOCCOCCNC(=N)c1ncn([C@@H]2O[C@H](CO)[C@@H](O)[C@H]2O)n1 [mPEG3-N-Ribamidine] | – | – | > 100 | 67.8 | > 100 | > 100 | – | – | – | – | –
6 | COCCOCCOCCOCCOCCNC(=O)c1ncn([C@@H]2O[C@H](CO)[C@@H](O)[C@H]2O)n1 [mPEG5-N-Ribavirin] | – | – | > 100 | > 100 | > 100 | > 100 | – | – | – | – | –
7 | COCCOCCOCCOCCOCCOCCNC(=N)c1ncn([C@@H]2O[C@H](CO)[C@@H](O)[C@H]2O)n1 [mPEG6-N-Ribamidine] | – | – | > 100 | > 100 | > 100 | 87.6 | – | – | – | – | –
8 | COCCOCCOCCOCCOCCOCCOCCNC(=N)c1ncn([C@@H]2O[C@H](CO)[C@@H](O)[C@H]2O)n1 [mPEG7-N-Ribamidine] | – | – | > 100 | > 100 | > 100 | > 100 | – | – | – | – | –
